Reference: ChEMBL document CHEMBL5729531, “Neprilysin inhibitors” (2023)

Biological target: Neprilysin/Angiotensin-converting enzyme (Homo sapiens, UniProt P12821+P08473)
Assay: Enzyme Inhibition Assay: The assays were performed in 384-well white opaque plates at 37° C. using the fluorogenic peptide substrates at a concentration of 10 μM in Assay Buffer (NEP: 50 mM HEPES, pH 7.5, 100 mM NaCl, 0.01% polyethylene glycol sorbitan monolaurate (Tween-20), 10 μM ZnSO4; ACE: 50 mM HEPES, pH 7.5, 100 mM NaCl, 0.01% Tween-20, 1 μM ZnSO4). The respective enzymes were used at …
Type: protein-complex assay
Description: Enzyme Inhibition Assay: The assays were performed in 384-well white opaque plates at 37° C. using the fluorogenic peptide substrates at a concentration of 10 μM in Assay Buffer (NEP: 50 mM HEPES, pH 7.5, 100 mM NaCl, 0.01% polyethylene glycol sorbitan monolaurate (Tween-20), 10 μM ZnSO4; ACE: 50 mM HEPES, pH 7.5, 100 mM NaCl, 0.01% Tween-20, 1 μM ZnSO4). […] Test compounds were added to the enzymes and incubated for 30 minute at 37° C. prior to initiating the reaction by the addition of substrate. Reactions were terminated after 20 minutes of incubation at 37° C. by the addition of glacial acetic acid to a final concentration of 3.6% (v/v).

SMILES: O=C(O)C(=O)NC(Cc1ccc(-c2ccccc2)cc1)CC(O)C(=O)O (stereo unspecified)
- Ki: 0.0355 µM
